The source of these data is patent US6949660B2, “Chiral (1pyrrolino) fullerene derivatives” (Seth Nanotechnology, Incorporated, priority 1995, dated 2005).

The test system of test [1] is superoxide radicals (O2−). Nature of the test: Superoxide radical scavenging: xanthine/xanthine oxidase system, cytochrome C reduction, absorption at 550 nm. The format is biochemical. To be noted: xanthine 50 μM, cytochrome C 10 μM, phosphate buffer pH 7.8. The protocol:
Detection of high free radical scavenging potency of hydrophilic fullerene derivatives. […] Therefore, the detected optical absorption intensity of the reduced cytochrome (Fe^+2) C can be correlated to the quantity of superoxide radicals reacted with cytochrome (Fe^+3) C. Scavenging of superoxide radicals by hydrophilic fullerene derivatives in the bio-medium inhibits the formation of reduced cytochrome (Fe+2) C and thus reduce the optical absorption at 550 nm.
In one experiment, xanthine (50 μM) was added to a physiological medium (3 ml) containing cytochrome C (10 μM), ethylenediaminetetraacetic acid (EDTA) (10 mM) and a phosphate buffer (50 mM) at pH 7.8. The mixture was then added xanthine oxidase in quantity enough to induce 0.025 unit of optical absorption at 550 nm per 5 min (Mc Cord, et al. J. Biol. Chem. 1969, 244, 6049.). Subsequently, 1,3-dimethyl-N-succinamitofulleropyrrolidine-1,3-dicarboxylic acid, C60[C(CH3)CO2H]2NCO—CH2CH2CO2H, prepared in Example 12, in a concentration of 0, 5.0, 10.0, 25.0, 50, and 100 μM was added in separated runs while the absorption intensity of the reduced cytochrome C was recorded. A rapid decrease of reduced cytochrome C to roughly 50% and 20% of the control value was obtained with the dose of 1,3-dimethyl-N-succinamitofulleropyrrolidine-1,3-dicarboxylic acid as 25 and 100 μM, respectively.

Test [2] concerns Fibrosarcoma tumor cells (CCRC 60037). The test is described as follows: Growth inhibition of fibrosarcoma tumor cells upon photo-irradiation, MTT assay. In kind it is cell-based. The conditions noted are these: compound 2.5 μM for 24 h; fluorescence light (27 W) photo-irradiation more than 20 min; then 48 h at 37° C. The procedure:
The growth inhibitory effect of 1,3-dimethyl-N-succinamitofulleropyrrolidine-1,3-dicarboxylic acid, C60[C(CH3)CO2H]2NCO—CH2CH2CO2H, which was prepared as described in Example 12, on fibrosarcoma tumor cells upon photo-irradiation was studied in vitro. Fibrosarcoma tumor cells (0.5 ml, 4×10^4/ml, CCRC 60037) were grown in the MEM medium in a 24-well plate for a period of 24 h. It was treated by 1,3-dimethyl-N-succinamitofulleropyrrolidine-1,3-dicarboxylic acid in a concentration of 0.0, 2.5, 5.0, 7.5, and 10.0 μM for a period of 24 hours. The MEM medium was removed and replaced by the fresh medium (1.0 ml). The cell-containing plates were exposed to a fluorescence light source (27 W) in a distance of 5-6 cm for a period of 10, 20, 40, and 60 min. The plates were then kept in incubator at 37° C. a period of 48 h. Measurement of cell viability in each plate was performed by the MTT assay using optical absorption at 540 nm.
For orientation: Tetrazolium assays rely on reduction of a dye to a coloured formazan, in cell work by metabolically active cells.

Take “1,3-dimethyl-N-succinamitofulleropyrrolidine-1,3-dicarboxylic acid”: the “reduced cytochrome C, % of the control value” in test [1] (compound 25 μM) is reported as “roughly 50%”; in test [1] (compound 100 μM), ~20%. Further, the “tumor cell count (cell viability, MTT, absorption at 540 nm)” value in test [2] is “rapid decrease in the tumor cell count”.
